# Experimental data published in US11352330B2, “Phenoxymethyl derivatives” (Hoffmann-La Roche Inc., priority 2015, dated 2022).
# Target: human ATX (Homo sapiens (Human), UniProt Q13822)
# Test: Human ATX enzyme inhibition assay (fluorescence quenching, MR121 substrate)
# Format: biochemical
# Conditions: human His-tagged ATX 30 nM, MR121 substrate 1 μM, 30° C.
# Method: Human ATX Enzyme Inhibition Assay
# ATX inhibition was measured by a fluorescence quenching assay using a specifically labeled substrate analogue (MR121 substrate). To obtain this MR121 substrate, BOC and TBS protected 6-amino-hexanoic acid (R)-3-({2-[3-(2-{2-[2-(2-amino-ethoxy)-ethoxy]-ethoxy}-ethoxy)-propionylamino]-ethoxy}-hydroxy-phosphoryloxy)-2-hydroxy-propyl ester (Ferguson et al., Org Lett 2006, 8 (10), 2023) was labeled with MR121 fluorophore (CAS 185308-24-1, 1-(3-carboxypropyl)-11-ethyl-1,2,3,4,8,9,10,11-octahydro-dipyrido[3,2-b:2′,3′-i]phenoxazin-13-ium) on the free amine of the ethanolamine side and then, after deprotection, subsequently with tryptophan on the side of the aminohexanoic acid.
# Assay working solutions were made as follows:
# Assay buffer (50 mM Tris-HCl, 140 mM NaCl, 5 mM KCl, 1 mM CaCl2, 1 mM MgCl2, 0.01% Triton-X-100, pH 8.0;
# ATX solution: ATX (human His-tagged) stock solution (1.08 mg/mL in 20 mM bicine, pH 8.5, 0.15 M NaCl, 10% glycerol, 0.3% CHAPS, 0.02% NaN3), diluted to 1.4-2.5× final concentration in assay buffer;
# MR121 substrate solution: MR121 substrate stock solution (800 μM MR121 substrate in DMSO), diluted to 2-5× final concentration in assay buffer.
# Test compounds (10 mM stock in DMSO, 8 μL) were obtained in 384 well sample plates (Corning Costar #3655) and diluted with 8 μL DMSO. Row-wise serial dilutions were made by transferring 8 μL cpd solution to the next row up to row O. The compound and control solutions were mixed five times and 2 μL were transferred to 384 well assay plates (Corning Costar #3702). Then, 15 μL of 41.7 nM ATX solution was added (30 nM final concentration), mixed five times and then incubated for 15 minutes at 30° C. 10 μL of MR121 substrate solution was added (1 μM final concentration), mixed 30 times and then incubated for 15 minutes at 30° C.
row,SMILES,IC50
1,Cc1cc(OCc2n[nH]c(=O)n2C)c(C(C)C)cc1Cl [Example A28],5 nM
2,Cn1c(COc2cc(C#N)c(Cl)cc2C2CC2)n[nH]c1=O [Example A22],173 nM
3,"Cc1cc(OCc2n[nH]c(=O)n2C)c(C(C)(C)C)cc1Cl [Example A1, 3-[(2-tert-Butyl-4-chloro-5-methylphenoxy)methyl]-4-methyl-1H-1,2,4-triazol-5-one]",2 nM
4,Cc1cc(OCc2n[nH]c(=O)n2C)c(-c2ccccc2Cl)cc1Cl [Example B2],1 nM
5,Cc1cc(OCc2n[nH]c(=O)n2C)c(C(C)(C)C)cc1C#N [Example A16],5 nM
6,Cn1cncc1-c1ccc(OCc2n[nH]c(=O)n2C)c(C(C)(C)C)c1 [Example A9],2610 nM
7,Cn1c(COc2cc(C#N)ccc2C(C)(C)C)n[nH]c1=O [Example A24],91 nM
8,Cc1cc(OCc2n[nH]c(=O)n2C)c(-c2ccccc2S(C)(=O)=O)cc1Cl [Example B7],4200 nM
9,Cc1cc(OCc2n[nH]c(=O)n2C)c(-c2cc(CN(C)C(=O)C3CC3)ccc2F)cc1Cl [Example B80],5 nM
10,"Cn1c(COc2cc(Cl)c(C#N)cc2-c2cc(OCC(F)(F)F)ccc2F)n[nH]c1=O [Example B98, 2-chloro-5-[2-fluoro-5-(2,2,2-trifluoroethoxy)phenyl]-4-[(4-methyl-5-oxo-1H-1,2,4-triazol-3-yl)methoxy]benzonitrile]",9 nM
11,Cc1cc(OCc2n[nH]c(=O)n2C)c(-c2cc(C(=O)N(C)C3CC3)ccc2F)cc1Cl [Example B63],10 nM
12,Cn1c(COc2cc(Cl)c(C#N)cc2-c2ccc(F)cc2)n[nH]c1=O [Example B32],31 nM
13,Cn1c(COc2cc(Cl)c(C#N)cc2-c2cccc(C(=O)N3CCOCC3)c2)n[nH]c1=O [Example B41],40 nM
14,Cc1cc(OCc2n[nH]c(=O)n2C)c(-c2cccc(C(=O)NCCO)c2)cc1Cl [Example B36],82 nM
15,Cc1cc(OCc2n[nH]c(=O)n2C)c(-c2cc(CN3CC(=O)N(C)CC3=O)ccc2F)cc1Cl [Example B76],11 nM
16,Cc1cc(OCc2n[nH]c(=O)n2C)c(-c2cccc(C(=O)NCC(=O)O)c2)cc1Cl [Example B48],192 nM
17,Cc1cc(OCc2n[nH]c(=O)n2C)c(-c2ccnn2C)cc1Cl [Example B30],467 nM
18,Cc1cc(OCc2n[nH]c(=O)n2C)c(-c2cccc(S(C)(=O)=O)c2)cc1Cl [Example B6],8 nM
19,CNC(=O)c1cccc(-c2cc(C#N)c(Cl)cc2OCc2n[nH]c(=O)n2C)c1 [Example B33],115 nM
20,Cc1cc(OCc2n[nH]c(=O)n2C)c(-c2ccno2)cc1Cl [Example B25],20 nM
21,Cn1c(COc2cc(C(N)=O)ccc2C(C)(C)C)n[nH]c1=O [Example A25],958 nM

# The next lines start with the values.
row,IC50,SMILES
1,80400 nM,"COCC(=O)N1CCc2[nH]nc(COc3cc(C)c(Cl)cc3C(C)(C)C)c2C1 [Example E3, 1-(3-((2-tert-Butyl-4-chloro-5-methylphenoxy)methyl)-6,7-dihydro-1H-pyrazolo[4,3-c]pyridin-5(4H)-yl)-2-methoxyethanone]"
2,1 nM,CC(C)(C)c1cc(Cl)c(F)cc1OCc1n[nH]c2nc(F)ccc12 [Example D12]
3,28 nM,N#Cc1cc(-c2cc(OC(F)(F)F)ccc2F)c(OCc2n[nH]c3ccncc23)cc1Cl [Example D54]
4,6 nM,Cc1cc(OCc2n[nH]c3ncccc23)c(-c2cc(C(=O)N3CCCC3)ccc2F)cc1Cl [Example D42]
5,4 nM,"CC(C)c1cc(Cl)c(F)cc1OCc1ccc(=O)[nH]n1 [Example C3, 3-[(4-chloro-5-fluoro-2-propan-2-ylphenoxy)methyl]-1H-pyridazin-6-one]"
6,14 nM,"Cc1cc(OCc2n[nH]c3ccccc23)c(C(C)C)cc1Cl [Example D2, 3-[(4-Chloro-5-methyl-2-propan-2-ylphenoxy)methyl]-1H-indazole]"
7,5 nM,N#Cc1cc(-c2cc(OC3CC3)ccc2F)c(OCc2ccc(=O)[nH]n2)cc1Cl [Example C14]
8,7 nM,N#Cc1cc(-c2cc(C(=O)N3CCCC3)ccc2F)c(OCc2n[nH]c3ncccc23)cc1Cl [Example D43]
